The target in one test is T1, JAK1 (Homo sapiens, UniProt P23458).
T1 construct: purchased Invitrogen
The test can be described thus: JAK1 enzyme inhibition test (LANCE method). In kind it is biochemical. The conditions noted are these: for inhibition at 10 µM: test compound 10 μM (Ex. 182-220), beside Tyk2 1 μM, read-out: Inhibitory rate (%) JAK1 10 μM; for inhibition at 1 µM: read-out: Inhibitory rate (%) JAK1 1 μM. On the procedure: JAK1 Enzyme Inhibition Test
(§1) JAK1 enzyme inhibitory activity of test compounds was measured by LANCE method (PerkinElmer). First, a test compound diluted with assay buffer (50 mM HEPES (pH=7.5), 10 mM MgCl2, 1 mM EGTA, 2 mM DTT, 0.01% Tween20, 0.01% BSA) was added to 384-well plate at 2 μL each. Then, a JAK1 (Invitrogen) solution and a fluorescence-labeled peptide substrate (ULight-JAK1, PerkinElmer) solution diluted with assay buffer at 187.5 ng/mL and 300 nM, respectively were added at 2 μL each. Then, enzyme reaction was started by adding 2 μL each of ATP solution prepared with assay buffer at 150 μM. After the reaction at room temperature for 1 hr, Detection Buffer (PerkinElmer) prepared to be 20 mM EDTA, 4 nM europium-labeled anti-phosphotyrosine antibody (PerkinElmer) was added at 6 μL each. After standing at room temperature for 1 hr, fluorescence intensity (excitation wavelength 340 nm, fluorescence wavelength 665 nm, delay time 100 microsecond) was measured by a plate reader, Envision (PerkinElmer). The inhibitory activity of each compound was calculated as relative value where fluorescence intensity of a well without enzyme is considered as 100% inhibition.

Another test addresses T2, Tyk2 (Homo sapiens, UniProt P29597).
T2 construct: purchased Invitrogen
The test can be described thus: Tyk2 enzyme inhibition test (LANCE method). Type of test: biochemical. The conditions noted are these: test compound 1 μM; for inhibition at 1 µM: read-out: Inhibitory rate (%) Tyk2 1 μM. As to the method: Tyk2 Enzyme Inhibition Test
as §1, with “Tyk2 enzyme” for “JAK1 enzyme”, “a Tyk2” for “a JAK1”, “at 375” for “at 187.5”, “at 30” for “at 150”

The values that follow come from patent publication US9371320B2, “Heterocyclic compound” (TAKEDA PHARMACEUTICAL COMPANY LIMITED, priority 2012, dated 2016).

T1 sequence (P23458 whole entry): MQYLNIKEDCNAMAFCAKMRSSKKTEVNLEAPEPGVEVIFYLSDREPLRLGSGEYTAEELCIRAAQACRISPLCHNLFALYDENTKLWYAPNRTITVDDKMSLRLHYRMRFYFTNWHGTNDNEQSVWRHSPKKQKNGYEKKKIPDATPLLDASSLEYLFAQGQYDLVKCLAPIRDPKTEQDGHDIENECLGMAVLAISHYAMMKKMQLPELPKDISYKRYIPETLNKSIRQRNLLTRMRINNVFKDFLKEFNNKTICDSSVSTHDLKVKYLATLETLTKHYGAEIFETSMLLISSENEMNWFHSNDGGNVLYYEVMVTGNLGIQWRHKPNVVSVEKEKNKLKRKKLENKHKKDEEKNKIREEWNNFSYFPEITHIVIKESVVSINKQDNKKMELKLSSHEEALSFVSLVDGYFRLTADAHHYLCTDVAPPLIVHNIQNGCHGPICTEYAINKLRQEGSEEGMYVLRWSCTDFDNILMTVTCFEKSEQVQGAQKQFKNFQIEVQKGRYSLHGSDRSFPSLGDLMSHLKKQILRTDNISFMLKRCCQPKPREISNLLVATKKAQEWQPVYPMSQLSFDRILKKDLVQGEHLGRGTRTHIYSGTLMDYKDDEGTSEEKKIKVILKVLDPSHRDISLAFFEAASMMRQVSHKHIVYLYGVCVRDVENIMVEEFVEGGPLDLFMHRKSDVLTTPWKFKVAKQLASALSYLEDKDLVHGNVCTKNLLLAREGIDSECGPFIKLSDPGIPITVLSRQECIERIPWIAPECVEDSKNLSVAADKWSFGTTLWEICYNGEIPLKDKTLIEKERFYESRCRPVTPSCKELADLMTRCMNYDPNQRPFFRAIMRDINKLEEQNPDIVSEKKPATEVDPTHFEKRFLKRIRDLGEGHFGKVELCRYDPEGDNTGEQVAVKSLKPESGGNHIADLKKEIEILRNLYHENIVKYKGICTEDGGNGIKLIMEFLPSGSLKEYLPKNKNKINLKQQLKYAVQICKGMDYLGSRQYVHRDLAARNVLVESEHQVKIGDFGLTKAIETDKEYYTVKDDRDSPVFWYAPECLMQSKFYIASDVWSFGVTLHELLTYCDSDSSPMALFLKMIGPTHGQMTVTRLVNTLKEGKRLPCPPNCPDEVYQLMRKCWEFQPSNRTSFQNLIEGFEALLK
T2 sequence (P29597 whole entry): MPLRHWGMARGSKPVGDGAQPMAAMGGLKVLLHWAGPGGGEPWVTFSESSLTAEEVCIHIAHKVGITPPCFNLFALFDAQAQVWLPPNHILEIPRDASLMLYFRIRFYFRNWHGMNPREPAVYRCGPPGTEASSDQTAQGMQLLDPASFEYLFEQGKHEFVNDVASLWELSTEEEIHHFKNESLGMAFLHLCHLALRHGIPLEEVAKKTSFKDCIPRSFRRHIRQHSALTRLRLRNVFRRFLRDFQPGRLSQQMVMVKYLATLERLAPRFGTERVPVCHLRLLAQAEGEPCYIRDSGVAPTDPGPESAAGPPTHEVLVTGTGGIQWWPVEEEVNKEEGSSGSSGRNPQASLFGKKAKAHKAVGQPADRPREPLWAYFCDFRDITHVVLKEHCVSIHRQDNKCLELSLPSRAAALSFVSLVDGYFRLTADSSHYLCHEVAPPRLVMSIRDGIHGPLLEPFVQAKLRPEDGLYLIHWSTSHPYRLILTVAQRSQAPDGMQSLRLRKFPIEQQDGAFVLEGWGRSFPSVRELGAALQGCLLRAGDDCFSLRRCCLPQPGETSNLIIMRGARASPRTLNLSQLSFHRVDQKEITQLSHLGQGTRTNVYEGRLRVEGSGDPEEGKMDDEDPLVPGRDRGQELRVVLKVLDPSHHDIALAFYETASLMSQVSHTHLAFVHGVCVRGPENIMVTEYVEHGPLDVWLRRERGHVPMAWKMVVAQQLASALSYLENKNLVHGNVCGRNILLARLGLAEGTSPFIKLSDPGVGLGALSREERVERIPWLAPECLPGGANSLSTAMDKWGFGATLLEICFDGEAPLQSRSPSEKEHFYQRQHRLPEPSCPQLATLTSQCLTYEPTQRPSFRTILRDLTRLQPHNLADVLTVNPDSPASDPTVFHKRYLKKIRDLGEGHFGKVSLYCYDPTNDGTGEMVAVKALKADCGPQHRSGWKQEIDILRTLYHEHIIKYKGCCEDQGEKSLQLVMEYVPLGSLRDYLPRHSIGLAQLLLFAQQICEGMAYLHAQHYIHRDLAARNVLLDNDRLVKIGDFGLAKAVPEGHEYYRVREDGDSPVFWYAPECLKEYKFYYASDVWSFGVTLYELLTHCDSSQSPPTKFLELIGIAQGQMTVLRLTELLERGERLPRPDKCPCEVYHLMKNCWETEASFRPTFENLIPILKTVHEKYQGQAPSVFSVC

In the case of `O=c1[nH]cc(Cl)c2c1c(-c1ccc(N3CCCOCC3)cc1)nn2-c1c(F)cccc1F` [Example 207, 7-chloro-1-(2,6-difluorophenyl)-3-(4-(1,4-oxazepan-4-yl)phenyl)-1,5-dihydro-4H-pyrazolo[4,3-c]pyridin-4-one], at JAK1, the inhibition at 10 µM was 73%. On Tyk2, the inhibition at 1 µM was 100%.

In the case of `O=C1CCCN1Cc1cc(-c2nn(-c3c(F)cccc3F)c3c(Cl)c[nH]c(=O)c23)cs1` [Example 220, 7-chloro-1-(2,6-difluorophenyl)-3-(5-((2-oxopyrrolidin-1-yl)methyl)-3-thienyl)-1,5-dihydro-4H-pyrazolo[4,3-c]pyridin-4-one], at JAK1, the inhibition at 10 µM stood at 98%. The inhibition at 1 µM on Tyk2 is 100%.

Regarding `NS(=O)(=O)c1ccc(-c2nn(-c3ccccc3Cl)c3cc[nH]c(=O)c23)cc1` [Example 214, 4-(1-(2-chlorophenyl)-4-oxo-4,5-dihydro-1H-pyrazolo[4,3-c]pyridin-3-yl)benzenesulfonamide], the inhibition at 10 µM on JAK1 was found to be 99%. Also, the inhibition at 1 µM at Tyk2 came out at 99%.

On to `Cn1cnc2cc(-c3nn(-c4c(F)cccc4F)c4c(Cl)c[nH]c(=O)c34)ccc21` [Example 226, 7-chloro-1-(2,6-difluorophenyl)-3-(1-methyl-1H-benzimidazol-5-yl)-1,5-dihydro-4H-pyrazolo[4,3-c]pyridin-4-one], for which the values for the inhibition at 1 µM at JAK1 (test compound 1 μM) and at Tyk2 were 40% and 98%, respectively.

Take `O=c1[nH]ccc2c1c(-c1ccncc1)nn2C1CCCC1` [Example 44, 1-cyclopentyl-3-(pyridin-4-yl)-1,5-dihydro-4H-pyrazolo[4,3-c]pyridin-4-one]: the figures for the inhibition at 1 µM at JAK1 (test compound 1 μM) and on Tyk2 were 94% and 91%, respectively.

For `NS(=O)(=O)c1ccc(-c2nn(C3CCCOC3)c3cc[nH]c(=O)c23)cc1` (stereo not drawn) [Example 28, 4-(4-oxo-1-(tetrahydro-2H-pyran-3-yl)-4,5-dihydro-1H-pyrazolo[4,3-c]pyridin-3-yl)benzenesulfonamide], at JAK1 (test compound 1 μM), the “Inhibitory rate (%) JAK1 1 μM” value worked out at 99%. The “Inhibitory rate (%) Tyk2 1 μM” value on Tyk2 amounted to 97%.

Consider `NS(=O)(=O)c1ccc(-c2nn(C3CCOC3)c3cc[nH]c(=O)c23)cc1` (stereo not drawn) [Example 82, 4-(4-oxo-1-(tetrahydrofuran-3-yl)-4,5-dihydro-1H-pyrazolo[4,3-c]pyridin-3-yl)benzenesulfonamide], for which the inhibition at 1 µM on JAK1 (test compound 1 μM) is 95%. Besides, the “Inhibitory rate (%) Tyk2 1 μM” value at Tyk2 is given as 78%.

As to `COCCNC(=O)c1ccc(-c2nn(-c3c(F)cccc3F)c3c(Cl)c[nH]c(=O)c23)cc1` [Example 231, 4-(7-chloro-1-(2,6-difluorophenyl)-4-oxo-4,5-dihydro-1H-pyrazolo[4,3-c]pyridin-3-yl)-N-(2-methoxyethyl)benzamide], the inhibition at 1 µM on JAK1 (test compound 1 μM) is 51%; on Tyk2, 99%.

Take `N#CCc1ccc(-c2cn(C3CCCC3)c3c(C#N)c[nH]c(=O)c23)cc1` [Example 96, 3-(4-(cyanomethyl)phenyl)-1-cyclopentyl-4-oxo-4,5-dihydro-1H-pyrrolo[3,2-c]pyridine-7-carbonitrile]: the inhibition at 1 µM at JAK1 (test compound 1 μM) turned out to be 94%; at Tyk2 it was 99%.

On to `CC1(C)CCCC1n1nc(-c2ccc(N3CCOCC3)cc2)c2c(=O)[nH]ccc21` (stereo not drawn) [Example 314, 1-(2,2-dimethylcyclopentyl)-3-(4-(morpholin-4-yl)phenyl)-1,5-dihydro-4H-pyrazolo[4,3-c]pyridin-4-one], for which the figures for the inhibition at 1 µM on JAK1 (test compound 1 μM) and at Tyk2 were 95% and 99%, respectively.

For the compound `Cc1ccc(-c2nn(C3CCCC3)c3cc[nH]c(=O)c23)cc1` [Example 50, 1-cyclopentyl-3-(4-methylphenyl)-1,5-dihydro-4H-pyrazolo[4,3-c]pyridin-4-one], the inhibition at 1 µM on JAK1 (test compound 1 μM) and on Tyk2 was 92% throughout.

Consider `CNC(=O)c1cc(F)cc(-c2nn(-c3c(F)cccc3F)c3c(Cl)c[nH]c(=O)c23)c1` [Example 273, 3-(7-chloro-1-(2,6-difluorophenyl)-4-oxo-4,5-dihydro-1H-pyrazolo[4,3-c]pyridin-3-yl)-5-fluoro-N-methylbenzamide], for which the inhibition at 1 µM on JAK1 (test compound 1 μM) came out at 1%; at Tyk2, 71%.

Consider `N#CCc1cc(-c2nn(-c3c(F)cccc3F)c3c(Cl)c[nH]c(=O)c23)cs1` [Example 152, (4-(7-chloro-1-(2,6-difluorophenyl)-4-oxo-4,5-dihydro-1H-pyrazolo[4,3-c]pyridin-3-yl)-2-thienyl)acetonitrile], for which the inhibition at 1 µM on JAK1 (test compound 1 μM) turned out to be 97%; on Tyk2, 99%.

Take `NC(=O)Cc1cc(-c2nn(-c3c(F)cccc3F)c3c(Cl)c[nH]c(=O)c23)cs1` [Example 160, 2-(4-(7-chloro-1-(2,6-difluorophenyl)-4-oxo-4,5-dihydro-1H-pyrazolo[4,3-c]pyridin-3-yl)-2-thienyl)acetamide]: the inhibition at 1 µM on JAK1 (test compound 1 μM) and at Tyk2 was 98% each time.

On to `NC(=O)Cc1ccc(-c2nn(-c3c(F)cccc3F)c3cc[nH]c(=O)c23)cc1` [Example 72, 2-(4-(1-(2,6-difluorophenyl)-4-oxo-4,5-dihydro-1H-pyrazolo[4,3-c]pyridin-3-yl)phenyl)acetamide], for which the inhibition at 1 µM is 97% on JAK1 (test compound 1 μM) and 99% on Tyk2.

For the compound `N#CCNC(=O)c1cc(-c2nn(-c3c(F)cccc3F)c3c(Cl)c[nH]c(=O)c23)cs1` [Example 191, 4-(7-chloro-1-(2,6-difluorophenyl)-4-oxo-4,5-dihydro-1H-pyrazolo[4,3-c]pyridin-3-yl)-N-(cyanomethyl)thiophene-2-carboxamide], the inhibition at 10 µM at JAK1 is 98%. The inhibition at 1 µM at Tyk2 worked out at 100%.

In the case of `CC(C)(C)n1nc(-c2csc(C(N)=O)c2)c2c(=O)[nH]ccc21` [Example 129, 4-(1-tert-butyl-4-oxo-4,5-dihydro-1H-pyrazolo[4,3-c]pyridin-3-yl)thiophene-2-carboxamide], the inhibition at 1 µM was found to be 98% at JAK1 (test compound 1 μM) and 97% on Tyk2.

In the case of `NS(=O)(=O)c1ccc(-c2nn(C3CCC(F)(F)CC3)c3cc[nH]c(=O)c23)cc1` [Example 290, 4-(1-(4,4-difluorocyclohexyl)-4-oxo-4,5-dihydro-1H-pyrazolo[4,3-c]pyridin-3-yl)benzenesulfonamide], the results for the inhibition at 1 µM at JAK1 (test compound 1 μM) and at Tyk2 were 98% and 95%, respectively.

With `COC(=O)c1cc(-c2nn(C3CCCC3)c3cc[nH]c(=O)c23)cs1` [Example 12, methyl 4-(1-cyclopentyl-4-oxo-4,5-dihydro-1H-pyrazolo[4,3-c]pyridin-3-yl)thiophene-2-carboxylate], the inhibition at 1 µM on JAK1 (test compound 1 μM) and at Tyk2 was 98% in each case.

On to `CC1(Cn2nc(-c3ccc(S(N)(=O)=O)cc3)c3c(=O)[nH]ccc32)COC1` [Example 100, 4-(1-((3-methyloxetan-3-yl)methyl)-4-oxo-4,5-dihydro-1H-pyrazolo[4,3-c]pyridin-3-yl)benzenesulfonamide], for which the inhibition at 1 µM on JAK1 (test compound 1 μM) turned out to be 96%; at Tyk2, 77%.

On to `O=c1[nH]ccc2c1c(-c1ccc(C3CCOCC3)cc1)nn2-c1c(F)cccc1F` [Example 257, 1-(2,6-difluorophenyl)-3-(4-(tetrahydro-2H-pyran-4-yl)phenyl)-1,5-dihydro-4H-pyrazolo[4,3-c]pyridin-4-one], for which the inhibition at 1 µM turned out to be 96% on JAK1 (test compound 1 μM) and 98% on Tyk2.

For `CNC(=O)c1ccc(-c2nn(-c3c(F)cccc3C#N)c3cc[nH]c(=O)c23)cc1` [Example 307, 4-(1-(2-cyano-6-fluorophenyl)-4-oxo-4,5-dihydro-1H-pyrazolo[4,3-c]pyridin-3-yl)-N-methylbenzamide], the inhibition at 1 µM worked out at 92% at JAK1 (test compound 1 μM) and 99% on Tyk2.

In the case of `NC(=O)c1cc(-c2nn(C3CCCC3)c3c(C4CC4)c[nH]c(=O)c23)cs1` [Example 282, 4-(1-cyclopentyl-7-cyclopropyl-4-oxo-4,5-dihydro-1H-pyrazolo[4,3-c]pyridin-3-yl)thiophene-2-carboxamide], the inhibition at 1 µM is 76% on JAK1 (test compound 1 μM) and 85% at Tyk2.

Turning to `COC(=O)c1cc(-c2nn(-c3c(F)cccc3F)c3cc[nH]c(=O)c23)cs1` [Example 36, methyl 4-(1-(2,6-difluorophenyl)-4-oxo-4,5-dihydro-1H-pyrazolo[4,3-c]pyridin-3-yl)thiophene-2-carboxylate], the inhibition at 1 µM at JAK1 (test compound 1 μM) turned out to be 97%; on Tyk2 it was 98%.
